# From ChEMBL document CHEMBL1201862, “PubChem BioAssay data set” (2004)
#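 Values below derive from 48-hour exposures of cells grown in 96-well plates, with endpoints linearly interpolated between the two concentrations bracketing the appropriate inhibition level. GI50 = concentration required for 50% inhibition of growth.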 Activity calls are given as the source filed them. No stated cut-off is given here; in the data, active = GI50 up to about 1.1 µM and inactive = higher.
# Experiments:
# Experiment in all cases: NCI tumour cell line growth inhibition, 48 h
# IGROV-1 = test system: IGROV-1
# HOP-62 = test system: HOP-62
# COLO 205 = test system: COLO 205
# SNB-75 = test system: SNB-75
# UACC-62 = test system: UACC-62
# HCT-116 = test system: HCT-116
# NCI-H23 = test system: NCI-H23
# A498 = test system: A498
# OVCAR-4 = test system: OVCAR-4
# HOP-92 = test system: HOP-92
# CCRF-CEM = test system: CCRF-CEM
# SK-MEL-28 = test system: SK-MEL-28
# MOLT-4 = test system: MOLT-4
# SR = test system: SR
# LXFL 529 = test system: LXFL 529
# NCI-H522 = test system: NCI-H522
# ACHN = test system: ACHN
# SF-268 = test system: SF-268
# SK-OV-3 = test system: SK-OV-3
# DMS-114 = test system: DMS-114
# HL-60 = test system: HL-60
# DLD-1 = test system: DLD-1
# SN12C = test system: SN12C
# SF-539 = test system: SF-539
# Malme-3M = test system: Malme-3M
# 786-0 = test system: 786-0
# HCT-15 = test system: HCT-15
# HCC 2998 = test system: HCC 2998
# NCI-H226 = test system: NCI-H226
# UO-31 = test system: UO-31
# M14 = test system: M14
# DMS-273 = test system: DMS-273
# RPMI-8226 = test system: RPMI-8226
# SK-MEL-2 = test system: SK-MEL-2
# CAKI-1 = test system: CAKI-1
# K562 = test system: K562
# HT-29 = test system: HT-29
# OVCAR-5 = test system: OVCAR-5
# A549 = test system: A549
# SF-295 = test system: SF-295
# OVCAR-8 = test system: OVCAR-8
# OVCAR-3 = test system: OVCAR-3
# KM-20L2 = test system: KM-20L2
# KM12 = test system: KM12
# SNB-19 = test system: SNB-19
# M19-MEL = test system: M19-MEL
# Hs-578T = test system: Hs-578T
# SK-MEL-5 = test system: SK-MEL-5
# MDA-MB-231 = test system: MDA-MB-231
# UACC-257 = test system: UACC-257
# SW-620 = test system: SW-620
# RXF 393 = test system: RXF 393
# TK-10 = test system: TK-10
# MDA-N = test system: MDA-N
# NCI-H460 = test system: NCI-H460
# T47D = test system: T47D
# PC-3 = test system: PC-3
# MCF7 = test system: MCF7
# NCI/ADR-RES = test system: NCI/ADR-RES
# U-251 = test system: U-251
# LOX IMVI = test system: LOX IMVI
# BT-549 = test system: BT-549
# EKVX = test system: EKVX
# DU-145 = test system: DU-145
# MDA-MB-435 = test system: MDA-MB-435
compound,measurement,setting,value
COc1cc([C@H]2Oc3cc(O)c4c(=O)cc(-c5ccccc5)oc4c3O[C@@H]2CO)ccc1O,GI50,IGROV-1,34 µM (inactive)
same,GI50,HOP-62,55.1 µM (inactive)
same,GI50,COLO 205,69.5 µM (inactive)
same,GI50,SNB-75,16.8 µM (inactive)
same,GI50,UACC-62,25.1 µM (inactive)
same,GI50,HCT-116,30.1 µM (inactive)
same,GI50,NCI-H23,22.5 µM (inactive)
same,GI50,A498,21.9 µM (inactive)
same,GI50,OVCAR-4,19.9 µM (inactive)
same,GI50,HOP-92,29.7 µM (inactive)
same,GI50,CCRF-CEM,65.6 µM (inactive)
same,GI50,SK-MEL-28,28.6 µM (inactive)
same,GI50,MOLT-4,46.5 µM (inactive)
same,GI50,SR,29.4 µM (inactive)
same,GI50,LXFL 529,21.6 µM (inactive)
same,GI50,NCI-H522,19.3 µM (inactive)
same,GI50,ACHN,20.3 µM (inactive)
same,GI50,SF-268,15.6 µM (inactive)
same,GI50,SK-OV-3,27.4 µM (inactive)
same,GI50,DMS-114,28 µM (inactive)
same,GI50,HL-60,50.8 µM (inactive)
same,GI50,DLD-1,46.9 µM (inactive)
same,GI50,SN12C,32.9 µM (inactive)
same,GI50,SF-539,22.2 µM (inactive)
same,GI50,Malme-3M,19 µM (inactive)
same,GI50,786-0,23.4 µM (inactive)
same,GI50,HCT-15,91.2 µM
same,GI50,HCC 2998,58.5 µM (inactive)
same,GI50,NCI-H226,32.4 µM (inactive)
same,GI50,UO-31,13.8 µM (inactive)
same,GI50,M14,39 µM (inactive)
same,GI50,DMS-273,51.3 µM (inactive)
same,GI50,RPMI-8226,59.8 µM (inactive)
same,GI50,SK-MEL-2,40.4 µM (inactive)
same,GI50,CAKI-1,26.4 µM (inactive)
same,GI50,K562,48.4 µM (inactive)
COc1cc(C2c3cc4c(cc3[C@@H](NC3CCN(Cc5ccccc5)CC3)C3COC(=O)[C@H]23)OCO4)cc(OC)c1O (some centres not stated),GI50,HOP-62,0.0282 µM (active)
same,GI50,HT-29,0.243 µM (active)
same,GI50,OVCAR-5,0.34 µM (active)
same,GI50,HCT-116,0.195 µM (active)
same,GI50,A549,0.0133 µM (active)
same,GI50,A498,0.136 µM (active)
same,GI50,CCRF-CEM,0.0251 µM (active)
same,GI50,SK-MEL-28,0.627 µM (active)
same,GI50,SF-268,0.203 µM (active)
same,GI50,SK-OV-3,0.0457 µM (active)
same,GI50,SF-295,0.0311 µM (active)
same,GI50,HL-60,0.0189 µM (active)
same,GI50,DLD-1,0.408 µM (active)
same,GI50,OVCAR-8,0.161 µM (active)
same,GI50,SF-539,0.0706 µM (active)
same,GI50,HCT-15,0.132 µM
same,GI50,HCC 2998,0.274 µM (active)
same,GI50,NCI-H226,0.0137 µM (active)
same,GI50,OVCAR-3,0.277 µM (active)
same,GI50,KM-20L2,0.354 µM (active)
same,GI50,KM12,0.33 µM (active)
same,GI50,SNB-19,0.177 µM (active)
same,GI50,M19-MEL,0.308 µM (active)
Nc1nc(Cl)c(N)c(NCC2(CO)CCC2)n1,GI50,Hs-578T,> 100 µM (inactive)
same,GI50,SK-MEL-5,75.9 µM (inactive)
same,GI50,IGROV-1,> 100 µM (inactive)
same,GI50,HOP-62,> 100 µM (inactive)
same,GI50,MDA-MB-231,> 100 µM (inactive)
same,GI50,COLO 205,> 100 µM (inactive)
same,GI50,UACC-257,> 100 µM (inactive)
same,GI50,SNB-75,> 100 µM (inactive)
same,GI50,SW-620,> 100 µM (inactive)
same,GI50,RXF 393,> 100 µM (inactive)
same,GI50,UACC-62,> 100 µM (inactive)
same,GI50,HT-29,> 100 µM (inactive)
same,GI50,OVCAR-5,> 100 µM (inactive)
same,GI50,HCT-116,> 100 µM (inactive)
same,GI50,A549,> 100 µM (inactive)
same,GI50,NCI-H23,94.2 µM (inactive)
same,GI50,A498,> 100 µM (inactive)
same,GI50,OVCAR-4,> 100 µM (inactive)
same,GI50,HOP-92,76 µM (inactive)
same,GI50,TK-10,> 100 µM (inactive)
same,GI50,CCRF-CEM,> 100 µM (inactive)
same,GI50,MDA-N,> 100 µM (inactive)
same,GI50,SK-MEL-28,> 100 µM (inactive)
same,GI50,MOLT-4,> 100 µM (inactive)
same,GI50,SR,> 100 µM (inactive)
same,GI50,NCI-H522,69.7 µM (inactive)
same,GI50,ACHN,> 100 µM (inactive)
same,GI50,SF-268,> 100 µM (inactive)
same,GI50,SK-OV-3,> 100 µM (inactive)
same,GI50,SF-295,> 100 µM (inactive)
same,GI50,NCI-H460,> 100 µM (inactive)
same,GI50,HL-60,> 100 µM (inactive)
same,GI50,T47D,91.8 µM (inactive)
same,GI50,PC-3,> 100 µM (inactive)
same,GI50,MCF7,> 100 µM (inactive)
same,GI50,OVCAR-8,> 100 µM (inactive)
same,GI50,NCI/ADR-RES,> 100 µM (inactive)
same,GI50,U-251,> 100 µM (inactive)
same,GI50,SN12C,> 100 µM (inactive)
same,GI50,SF-539,> 100 µM (inactive)
same,GI50,LOX IMVI,> 100 µM (inactive)
same,GI50,Malme-3M,> 100 µM (inactive)
same,GI50,786-0,> 100 µM (inactive)
same,GI50,HCT-15,> 100 µM
same,GI50,HCC 2998,> 100 µM (inactive)
same,GI50,BT-549,> 100 µM (inactive)
same,GI50,NCI-H226,> 100 µM (inactive)
same,GI50,UO-31,> 100 µM (inactive)
same,GI50,OVCAR-3,> 100 µM (inactive)
same,GI50,M14,> 100 µM (inactive)
same,GI50,KM12,> 100 µM (inactive)
same,GI50,RPMI-8226,> 100 µM (inactive)
same,GI50,SK-MEL-2,> 100 µM (inactive)
same,GI50,EKVX,> 100 µM (inactive)
same,GI50,SNB-19,> 100 µM (inactive)
same,GI50,CAKI-1,> 100 µM (inactive)
same,GI50,K562,> 100 µM (inactive)
same,GI50,DU-145,> 100 µM (inactive)
same,GI50,MDA-MB-435,> 100 µM (inactive)
CC12CCC(C(Nc3ccccn3)C1=O)C2(C)C (configuration not stated),GI50,Hs-578T,> 100 µM (inactive)
same,GI50,SK-MEL-5,> 100 µM (inactive)
same,GI50,IGROV-1,> 100 µM (inactive)
same,GI50,HOP-62,> 100 µM (inactive)
same,GI50,MDA-MB-231,> 100 µM (inactive)
same,GI50,COLO 205,> 100 µM (inactive)
same,GI50,UACC-257,> 100 µM (inactive)
same,GI50,SNB-75,63 µM (inactive)
same,GI50,SW-620,> 100 µM (inactive)
same,GI50,RXF 393,> 100 µM (inactive)
same,GI50,UACC-62,> 100 µM (inactive)
same,GI50,HT-29,> 100 µM (inactive)
same,GI50,OVCAR-5,> 100 µM (inactive)
same,GI50,HCT-116,> 100 µM (inactive)
same,GI50,A549,> 100 µM (inactive)
same,GI50,NCI-H23,> 100 µM (inactive)
same,GI50,A498,> 100 µM (inactive)
same,GI50,OVCAR-4,> 100 µM (inactive)
same,GI50,HOP-92,> 100 µM (inactive)
same,GI50,TK-10,> 100 µM (inactive)
same,GI50,CCRF-CEM,> 100 µM (inactive)
same,GI50,MDA-N,> 100 µM (inactive)
same,GI50,SK-MEL-28,> 100 µM (inactive)
same,GI50,MOLT-4,> 100 µM (inactive)
same,GI50,SR,> 100 µM (inactive)
same,GI50,NCI-H522,> 100 µM (inactive)
same,GI50,ACHN,> 100 µM (inactive)
same,GI50,SF-268,> 100 µM (inactive)
same,GI50,SK-OV-3,> 100 µM (inactive)
same,GI50,SF-295,> 100 µM (inactive)
same,GI50,NCI-H460,> 100 µM (inactive)
same,GI50,HL-60,> 100 µM (inactive)
same,GI50,T47D,> 100 µM (inactive)
same,GI50,PC-3,> 100 µM (inactive)
same,GI50,MCF7,> 100 µM (inactive)
same,GI50,OVCAR-8,> 100 µM (inactive)
same,GI50,NCI/ADR-RES,> 100 µM (inactive)
same,GI50,U-251,> 100 µM (inactive)
same,GI50,SN12C,> 100 µM (inactive)
same,GI50,SF-539,> 100 µM (inactive)
same,GI50,LOX IMVI,> 100 µM (inactive)
same,GI50,Malme-3M,> 100 µM (inactive)
same,GI50,786-0,> 100 µM (inactive)
same,GI50,HCT-15,> 100 µM
same,GI50,HCC 2998,29.9 µM (inactive)
same,GI50,BT-549,> 100 µM (inactive)
same,GI50,NCI-H226,> 100 µM (inactive)
same,GI50,UO-31,> 100 µM (inactive)
same,GI50,OVCAR-3,> 100 µM (inactive)
same,GI50,M14,> 100 µM (inactive)
same,GI50,KM12,> 100 µM (inactive)
same,GI50,RPMI-8226,> 100 µM (inactive)
same,GI50,SK-MEL-2,> 100 µM (inactive)
same,GI50,EKVX,> 100 µM (inactive)
same,GI50,SNB-19,> 100 µM (inactive)
same,GI50,CAKI-1,> 100 µM (inactive)
same,GI50,K562,> 100 µM (inactive)
same,GI50,DU-145,> 100 µM (inactive)
same,GI50,MDA-MB-435,> 100 µM (inactive)
